The NIST ThermoML archive (doi:10.1021/acs.jced.8b00921)

Assay: xn = mol fraction of the nth substance listed
Details: Gas, isochoric method

C=CC(F)(F)F [1,1,1-trifluoro-2-propene] + CC(C)C
Details	specific volume [m3/kg]
303.15 K, 47.6 kPa, x2 = 0.282	0.6134
303.15 K, 169.8 kPa, x2 = 0.898	0.2302
308.15 K, 48.4 kPa, x2 = 0.282	0.6136
308.15 K, 172.8 kPa, x2 = 0.898	0.2303
308.15 K, 192.7 kPa, x2 = 0.434	0.1611
308.15 K, 289.5 kPa, x2 = 0.225	0.0942
313.15 K, 49.2 kPa, x2 = 0.282	0.6137
313.15 K, 175.8 kPa, x2 = 0.898	0.2303
313.15 K, 196 kPa, x2 = 0.434	0.1611
313.15 K, 294.8 kPa, x2 = 0.225	0.0943
318.15 K, 50 kPa, x2 = 0.282	0.6139
318.15 K, 178.7 kPa, x2 = 0.898	0.2304
318.15 K, 199.4 kPa, x2 = 0.434	0.1611
318.15 K, 300.1 kPa, x2 = 0.225	0.0943
323.15 K, 50.8 kPa, x2 = 0.282	0.614
323.15 K, 181.7 kPa, x2 = 0.898	0.2304
323.15 K, 202.4 kPa, x2 = 0.434	0.1612
323.15 K, 305.3 kPa, x2 = 0.225	0.0943
328.15 K, 51.6 kPa, x2 = 0.282	0.6141
328.15 K, 184.7 kPa, x2 = 0.898	0.2305
328.15 K, 205.9 kPa, x2 = 0.434	0.1612
328.15 K, 310.5 kPa, x2 = 0.225	0.0943
333.15 K, 52.4 kPa, x2 = 0.282	0.6143
333.15 K, 187.6 kPa, x2 = 0.898	0.2305
333.15 K, 209.4 kPa, x2 = 0.434	0.1613
333.15 K, 315.8 kPa, x2 = 0.225	0.0943
338.15 K, 53.2 kPa, x2 = 0.282	0.6144
338.15 K, 190.4 kPa, x2 = 0.898	0.2306
338.15 K, 212 kPa, x2 = 0.434	0.1613
338.15 K, 320.9 kPa, x2 = 0.225	0.0944
343.15 K, 54 kPa, x2 = 0.282	0.6145
343.15 K, 193.4 kPa, x2 = 0.898	0.2306
343.15 K, 215.5 kPa, x2 = 0.434	0.1613
343.15 K, 326.1 kPa, x2 = 0.225	0.0944
348.15 K, 54.8 kPa, x2 = 0.282	0.6147
348.15 K, 196.3 kPa, x2 = 0.898	0.2307
348.15 K, 218.9 kPa, x2 = 0.434	0.1614
348.15 K, 331.3 kPa, x2 = 0.225	0.0944
353.15 K, 55.6 kPa, x2 = 0.282	0.6148
353.15 K, 199.4 kPa, x2 = 0.898	0.2307
353.15 K, 222.4 kPa, x2 = 0.434	0.1614
353.15 K, 336.5 kPa, x2 = 0.225	0.0944
358.15 K, 56.4 kPa, x2 = 0.282	0.6149
358.15 K, 202.3 kPa, x2 = 0.898	0.2308
358.15 K, 225 kPa, x2 = 0.434	0.1614
358.15 K, 341.6 kPa, x2 = 0.225	0.0944
363.15 K, 57.2 kPa, x2 = 0.282	0.6151
363.15 K, 205.3 kPa, x2 = 0.898	0.2308
363.15 K, 228.5 kPa, x2 = 0.434	0.1615
363.15 K, 346.8 kPa, x2 = 0.225	0.0945
368.15 K, 58.1 kPa, x2 = 0.282	0.6152
368.15 K, 208.1 kPa, x2 = 0.898	0.2309
368.15 K, 231.9 kPa, x2 = 0.434	0.1615
368.15 K, 351.9 kPa, x2 = 0.225	0.0945
373.15 K, 58.8 kPa, x2 = 0.282	0.6153
373.15 K, 211.1 kPa, x2 = 0.898	0.2309
373.15 K, 235.2 kPa, x2 = 0.434	0.1615
373.15 K, 357.1 kPa, x2 = 0.225	0.0945
378.15 K, 59.7 kPa, x2 = 0.282	0.6155
378.15 K, 213.4 kPa, x2 = 0.898	0.231
378.15 K, 236.9 kPa, x2 = 0.434	0.1616
378.15 K, 362.3 kPa, x2 = 0.225	0.0945
383.15 K, 60.5 kPa, x2 = 0.282	0.6156
383.15 K, 217.1 kPa, x2 = 0.898	0.231
383.15 K, 240.1 kPa, x2 = 0.434	0.1616
383.15 K, 367.5 kPa, x2 = 0.225	0.0946
